According to US5004735A, “Pharmaceutical compositions for the inhibition of tumor metastasis” (Nisshin Flour Milling Co., Ltd., priority 1988, dated 1991):

Legend:
[1] = system: B16-F10 melanoma; assay: Inhibition of lung metastasis of B16-F10 melanoma in mice, intraperitoneal olive oil solution (Example 3); assay type: in vivo, male C57BL/6 mice
Protocol: (§1) Experimental animal: male C57BL/6 mice (6 weeks old)
(§2) Tumor cell line: B16-F10 melanoma
Compounds B, D, E and F were tested for the inhibitory effect on tumor metastasis using the same experimental animal and tumor cell line as in Example 1. Test method: Mice were given 4×10^5 B16-F10 melanoma cells in 0.05 ml of serum-free RPMI 1640 medium in the foot pad of the left hind leg. A solution of Compounds B, D, E or F (0.1 or 0.2 mg) in 0.2 ml of olive oil was administered intraperitoneally every other day from day 1 to day 27 after inoculation of the melanoma cells. During this period, the size of the inoculated tumors was observed macroscopically. On day 28, the tumor-bearing legs were cut from the mice and on day 42 the mice were sacrificed. The number of metastatic nodules formed on the lung surface was counted for each mouse. 10 Animals were used per each group except for control group wherein 20 animals were used.

[2] = system: B16-F10 melanoma cells; assay: L-PHA-sensitivity of cultured tumor cells (Example 4); assay type: cell-based; settings: Mus musculus, 10 μl of 50 μg/ml test compound in DMSO added on day 1 to 2 ml medium, L-PHA 50 μl of 50 μg/ml on day 2, count day 4, control 42.0, read-out: Growth inhibition by L-PHA
Protocol: Tumor cell culture: B16-F10 melanoma cells were incubated in RPMI 1640 medium containing 10% fetal bovine serum and antibiotics at 37° C.
Test method: B16-F10 cells (5×10^4) in 2 ml of the medium were seeded onto a plastic dish and incubation was started. On day 1, 10 μl of dimethylsulfoxide (control group) or a test compound suspended in 10 μl of dimethylsulfoxide at a concentration of 50 μg/ml (test group) was added. On day 2, 50 μl each of water was added to a half of each of the control group and the test group, and 50 μl of 50 μg/ml L-PHA solution in water was added to a remaining half. On day 4, the number of cells was counted in L-PHA-treated and untreated groups and % growth inhibition by L-PHA was calculated according to the following formula:
% Growth Inhibition=(1-N/N0)×100
in which N denotes a number of cells in the presence of L-PHA and N0 denotes a number of cells in the absence thereof.

[3] = system: B16-F10 melanoma; assay: Inhibition of tumor metastasis to lung by intravenous oily emulsions (Example 8); assay type: in vivo, male C57BL/6 mice; settings: oily emulsion i.v., 9 times every three days
Protocol: Male C57BL/6 mice (6 weeks old) were given 4×10^5 B16-F10 melanoma cells in 0.05 ml of serum-free RPMI 1640 medium in the foot pad of the left hind leg. […] The tumor-bearing legs were cut on day 27 and the mice were sacrificed on day 41. The number of metastatic nodules formed in the lung was counted for each mouse. 10 Animals were used per each group. % Inhibition of tumor metastasis to lung was calculated on the basis of the following formula.
% Inhibition of tumor metastasis to lung=(1-M/M0)×100

[4] = system: B16-F10 melanoma; assay: Inhibition of lung metastasis of B16-F10 melanoma in mice, intraperitoneal suspension (Examples 1 and 2); assay type: in vivo, male C57BL/6 mice; settings: for Number of metastatic nodules mean ± standard error / Inhibition of metastasis: day 1 to 27, day 42; for Number of metastatic nodules mean ± standard error: lung surface; for Inhibition of metastasis: lung
Protocol: as §1, §2
Test method: Mice were given 4×10^5 B16-F10 melanoma cells in 0.05 ml of serum-free RPMI 1640 medium in the foot pad of the left hind leg. […] During this period, the size of the inoculated tumor was observed macroscopically. On day 28, tumor-bearing legs were cut from the mice and on day 42 the mice were sacrificed. The number of metastatic nodules formed on the lung surface was counted for each mouse. 10 Animals were used per each group
Compounds G and H were tested for the inhibitory effect on tumor metastasis.

CC(C)=CCC/C(C)=C/CC/C(C)=C/CC/C(C)=C/CC/C(C)=C/CC/C(C)=C/CC/C(C)=C/CC/C(C)=C/CC/C(C)=C/CCC(C)CCO (centres unmarked) [Compound B]
Growth of the inoculated tumors (in words) ([1]; 10 mg/Kg i.p., compared with Control): about the same as that of Control | Number of metastatic nodules mean ± standard error ([1]; 10 mg/kg i.p. in olive oil every other day, day 1 to 27, lung surface, day 42): 11.7 ± 6.2 | Inhibition of metastasis ([1]; 10 mg/kg i.p. in olive oil every other day, day 1 to 27, lung, day 42): 63% | inhibition at 50 µg/mL (stock) [2]: 36.6% | Inhibition of tumor metastasis to lung ([3]; 0.8 mg/kg): 54%

CC(C)=CCC/C(C)=C/CC/C(C)=C/CC/C(C)=C/CC/C(C)=C/CC/C(C)=C/CC/C(C)=C/CC/C(C)=C/CC/C(C)=C/CCC(C)CCOP(=O)(O)O (centres unmarked) [Compound G]
Inhibitory effect on tumor metastasis (in words) ([4]; Example 2, i.p. suspension, same method as Example 1): essentially the same as that of Compound C

CC(C)=CCC/C(C)=C/CC/C(C)=C/CC/C(C)=C/CC/C(C)=C/CC/C(C)=C/CC/C(C)=C/CC/C(C)=C/CC/C(C)=C/CCC(C)CCOP(=O)(O)O (centres unmarked) [Compound C]
inhibition at 50 µg/mL (stock) [2]: 32.7% | Inhibition of tumor metastasis to lung ([3]; 0.3 mg/kg): 79% | Inhibition of tumor metastasis to lung ([3]; 0.8 mg/kg): 78% | Inhibition of tumor metastasis to lung ([3]; 2.0 mg/kg): 85% | Number of metastatic nodules mean ± standard error ([4]; 5 mg/kg i.p. every other day): 1.2 ± 0.8 | Inhibition of metastasis ([4]; 5 mg/kg i.p. every other day): 94% | Number of metastatic nodules mean ± standard error ([4]; 10 mg/kg i.p. every other day): 0 | Inhibition of metastasis ([4]; 10 mg/kg i.p. every other day): 100%
